Drawing on ChEMBL document CHEMBL3875166, “Synthesis and biological evaluation of new 6-hydroxypyridazinone benzisoxazoles: Potential multi-receptor-targeting atypical antipsychotics” (Eur J Med Chem, 2016), this text covers Ki for 37 compounds.

pKi: −log10 of the molar value.

The target in one assay is D(2) dopamine receptor (Rattus norvegicus, UniProt P61169). Nature of the assay: Displacement of [3H]spiperone from dopamine D2 receptor in Sprague-Dawley rat striatum incubated for 30 mins by liquid scintillation counting analysis. A general note: Displacement assays read how much labelled ligand stays bound in the presence of the test substance.
The target of assay [1] is T1, 5-hydroxytryptamine receptor 1A (Rattus norvegicus, UniProt P19327).
T1 sequence (P19327 whole entry): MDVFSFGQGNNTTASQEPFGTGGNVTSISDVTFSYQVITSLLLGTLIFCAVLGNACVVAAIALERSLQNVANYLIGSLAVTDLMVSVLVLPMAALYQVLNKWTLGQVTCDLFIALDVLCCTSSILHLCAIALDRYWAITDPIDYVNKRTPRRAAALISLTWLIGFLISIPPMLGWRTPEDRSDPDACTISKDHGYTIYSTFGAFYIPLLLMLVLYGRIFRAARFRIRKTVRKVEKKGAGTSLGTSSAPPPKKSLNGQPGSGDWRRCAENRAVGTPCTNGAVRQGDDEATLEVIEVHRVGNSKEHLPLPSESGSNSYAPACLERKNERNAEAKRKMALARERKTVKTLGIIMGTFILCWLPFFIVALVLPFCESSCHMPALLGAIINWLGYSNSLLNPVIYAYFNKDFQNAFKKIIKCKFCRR
As to the kind of experiment: Displacement of [3H]8-OH-DPAT from 5-HT1A receptor in Sprague-Dawley rat cerebral cortex incubated for 30 mins by liquid scintillation counting analysis.

Assay [2] deals with 5-hydroxytryptamine receptor 2A (Rattus norvegicus, UniProt P14842). As to the kind of experiment: Displacement of [3H] ketanserin from 5-HT2A receptor in Sprague-Dawley rat cerebral cortex incubated for 30 mins by liquid scintillation counting analysis.
Sequence of 5-hydroxytryptamine receptor 2A (P14842 whole entry): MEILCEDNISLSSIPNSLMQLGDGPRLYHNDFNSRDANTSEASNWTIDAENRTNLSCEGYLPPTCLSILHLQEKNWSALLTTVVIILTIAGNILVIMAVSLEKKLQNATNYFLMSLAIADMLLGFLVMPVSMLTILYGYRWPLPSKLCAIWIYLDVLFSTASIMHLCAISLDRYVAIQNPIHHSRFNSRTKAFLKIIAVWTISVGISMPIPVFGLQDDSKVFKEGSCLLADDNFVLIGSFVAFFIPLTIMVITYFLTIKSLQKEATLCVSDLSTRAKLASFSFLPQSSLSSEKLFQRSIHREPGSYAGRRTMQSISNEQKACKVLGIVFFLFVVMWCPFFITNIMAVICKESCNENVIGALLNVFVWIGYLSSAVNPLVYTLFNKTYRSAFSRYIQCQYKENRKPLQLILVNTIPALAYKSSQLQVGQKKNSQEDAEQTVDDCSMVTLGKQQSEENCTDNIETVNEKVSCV

Sequence of D(2) dopamine receptor (P61169 whole entry): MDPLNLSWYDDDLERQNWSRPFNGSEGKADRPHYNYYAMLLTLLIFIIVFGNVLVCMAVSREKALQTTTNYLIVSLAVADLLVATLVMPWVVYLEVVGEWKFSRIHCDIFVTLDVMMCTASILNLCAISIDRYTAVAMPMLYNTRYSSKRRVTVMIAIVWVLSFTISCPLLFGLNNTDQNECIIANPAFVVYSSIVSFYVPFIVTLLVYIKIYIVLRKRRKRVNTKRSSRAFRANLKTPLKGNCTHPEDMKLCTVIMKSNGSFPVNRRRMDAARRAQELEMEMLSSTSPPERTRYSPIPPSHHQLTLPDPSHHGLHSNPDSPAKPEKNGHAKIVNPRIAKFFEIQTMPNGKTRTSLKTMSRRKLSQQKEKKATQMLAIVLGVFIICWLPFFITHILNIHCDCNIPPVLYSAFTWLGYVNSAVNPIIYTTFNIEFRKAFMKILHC

Take `Cc1c(OCCCN2CCC(c3noc4cc(F)ccc34)CC2)nn(-c2ccc(Cl)c(Cl)c2)c(=O)c1C`: the pKi on D(2) dopamine receptor is 7.42; in assay [1] it was 6.92; in assay [2] it was 7.04.

For `O=c1ccc(OCCCN2CCC(c3noc4cc(F)ccc34)CC2)nn1-c1ccc(Cl)cc1`, the pKi at D(2) dopamine receptor was 7.55; in assay [1], 7.05; in assay [2], 7.91.

Consider `O=c1ccc(OCCCN2CCN(c3ccccn3)CC2)nn1-c1ccc(Cl)c(Cl)c1`, for which the pKi at D(2) dopamine receptor is under 5.00; in assay [1], 6.80; in assay [2], 6.84.

Take `Cc1cccc(N2CCN(CCCOc3ccc(=O)n(-c4ccc(Cl)c(Cl)c4)n3)CC2)c1C`: the negative-log Ki (pKi) at D(2) dopamine receptor is under 5.00; in assay [1] it was 5.26; in assay [2] it was 7.09.

In the case of `O=c1ccc(OCCCN2CCN(c3ccc(F)cc3)CC2)nn1-c1ccc(Cl)c(Cl)c1`, the pKi on D(2) dopamine receptor is 6.02; in assay [1] it was 7.26; in assay [2] it was 7.19.

`O=c1ccc(OCCCCCN2CCC(c3noc4cc(F)ccc34)CC2)nn1-c1ccc(Cl)c(Cl)c1`: the pKi on D(2) dopamine receptor is 7.39; in assay [1], 6.49; in assay [2] it was 7.60.

For the compound `O=c1ccc(OCCCN2CCC(c3noc4cc(F)ccc34)CC2)nn1-c1ccc(F)c(Cl)c1`, the pKi is 7.34 on D(2) dopamine receptor, 7.05 in assay [1] and 7.91 in assay [2].

As to `Cc1ccc(-n2nc(OCCCN3CCC(c4noc5cc(F)ccc45)CC3)ccc2=O)cc1`, the pKi was 7.48 on D(2) dopamine receptor, 7.47 in assay [1] and 7.26 in assay [2].

For the compound `COc1ccccc1N1CCN(CCCOc2ccc(=O)n(-c3ccc(Cl)c(Cl)c3)n2)CC1`, the values for the pKi (on D(2) dopamine receptor; in assay [1]; in assay [2]) were 6.28, 7.25 and 6.62, respectively.

Regarding `O=c1c2ccccc2c(OCCCN2CCC(c3noc4cc(F)ccc34)CC2)nn1-c1ccc(Cl)c(Cl)c1`, the pKi on D(2) dopamine receptor was 7.36; in assay [1] it was 6.48; in assay [2], 7.08.

In the case of `O=c1ccc(OCCCN2CCN(c3ncccn3)CC2)nn1-c1ccc(Cl)c(Cl)c1`, the pKi at D(2) dopamine receptor was 6.04; in assay [1], 6.78; in assay [2] it was 5.95.

Consider `O=c1ccc(OCCCN2CCC(c3noc4cc(F)ccc34)CC2)nn1-c1ccc(F)c(F)c1`, for which the results for the pKi (on D(2) dopamine receptor; in assay [1]; in assay [2]) were 7.41, 7.36 and 8.49, respectively.

`O=c1c2c(c(OCCCN3CCC(c4noc5cc(F)ccc45)CC3)nn1-c1ccc(Cl)c(Cl)c1)CCCC2`: the negative logarithm of the Ki (pKi) is 7.38 on D(2) dopamine receptor, 6.65 in assay [1] and 7.05 in assay [2].

Consider `O=c1ccc(OCCCN2CCC(c3noc4cc(F)ccc34)CC2)nn1-c1cc(Cl)cc(Cl)c1`, for which the pKi on D(2) dopamine receptor is 7.42; in assay [1], 6.89; in assay [2], 8.03.

For the compound `O=c1ccc(OCCCN2CCC(c3noc4cc(F)ccc34)CC2)nn1-c1ccccc1`, the pKi at D(2) dopamine receptor is 7.34; in assay [1], 7.21; in assay [2], 6.88.

`O=c1ccc(OCCCCN2CCC(c3noc4cc(F)ccc34)CC2)nn1-c1ccc(Cl)c(Cl)c1`: the pKi on D(2) dopamine receptor is 7.57; in assay [1], 6.93; in assay [2] it was 7.46.

For the compound `O=c1ccc(OCCCN2CCC(c3noc4cc(F)ccc34)CC2)nn1-c1ccc2ccccc2c1`, the pKi at D(2) dopamine receptor was 7.79; in assay [1], 7.80; in assay [2], 7.67.

For `O=c1ccc(OCCCN2CCN(c3ccccc3F)CC2)nn1-c1ccc(Cl)c(Cl)c1`, the pKi was 5.92 at D(2) dopamine receptor, 7.25 in assay [1] and 7.16 in assay [2].

For `O=c1ccc(OCCCN2CCC(c3noc4cc(F)ccc34)CC2)nn1-c1cccc(Cl)c1`, the results for the pKi (on D(2) dopamine receptor; in assay [1]; in assay [2]) were 7.39, 6.74 and 8.22, respectively.

For `O=c1ccc(OCCCN2CCN(c3csc4ccccc34)CC2)nn1-c1ccc(Cl)c(Cl)c1`, the pKi at D(2) dopamine receptor is 6.19; in assay [1], 6.01; in assay [2], 7.09.

Consider `O=c1ccc(OCCCN2CCN(Cc3ccccc3)CC2)nn1-c1ccc(Cl)c(Cl)c1`, for which the pKi on D(2) dopamine receptor is under 5.00; in assay [1], 6.67; in assay [2], 6.23.

`COc1ccc(N2CCN(CCCOc3ccc(=O)n(-c4ccc(Cl)c(Cl)c4)n3)CC2)cc1`: the pKi is 6.07 on D(2) dopamine receptor, 7.24 in assay [1] and 6.27 in assay [2].

As to `O=c1ccc(OCCCN2CCC(c3noc4cc(F)ccc34)CC2)nn1-c1ccccc1Cl`, the pKi on D(2) dopamine receptor is 7.41; in assay [1], 7.11; in assay [2] it was 7.99.

For `O=c1ccc(OCCCN2CCC(c3noc4cc(F)ccc34)CC2)nn1-c1ccc(F)cc1F`, the pKi at D(2) dopamine receptor is 6.76; in assay [1], 7.05; in assay [2] it was 9.30.

For `NC(=O)c1ccc2occ(N3CCN(CCCOc4ccc(=O)n(-c5ccc(Cl)c(Cl)c5)n4)CC3)c2c1`, the pKi at D(2) dopamine receptor is 6.42; in assay [1], 7.19; in assay [2], 6.22.

Consider `O=c1ccc(OCCCN2CCC(c3noc4cc(F)ccc34)CC2)nn1-c1ccc(F)cc1`, for which the pKi at D(2) dopamine receptor is 7.97; in assay [1] it was 7.28; in assay [2], 7.59.

As for `O=c1ccc(OCCCN2CCN(c3ccccc3Cl)CC2)nn1-c1ccc(Cl)c(Cl)c1`, the pKi at D(2) dopamine receptor was 6.09; in assay [1], 5.95; in assay [2], 6.92.

With `O=c1ccc(OCCCN2CCC(c3noc4cc(F)ccc34)CC2)nn1-c1ccc(Cl)c(Cl)c1`, the pKi at D(2) dopamine receptor was 8.11; in assay [1], 7.60; in assay [2] it was 7.66.

Consider `O=c1ccc(OCCCN2CCC(c3noc4cc(F)ccc34)CC2)nn1-c1cc(F)cc(F)c1`, for which the pKi at D(2) dopamine receptor is 7.45; in assay [1], 7.42; in assay [2], 8.64.

For the compound `O=C(c1ccc(F)cc1)C1CCN(CCCOc2ccc(=O)n(-c3ccc(Cl)c(Cl)c3)n2)CC1`, the pKi is 6.75 at D(2) dopamine receptor and 7.86 in assay [2].

Take `O=c1ccc(OCCCN2CCN(c3nsc4ccccc34)CC2)nn1-c1ccc(Cl)c(Cl)c1`: the pKi is 6.23 at D(2) dopamine receptor, 6.05 in assay [1] and 7.12 in assay [2].

As to `O=c1ccc(OCCCN2CCC(c3c[nH]c4ccccc34)CC2)nn1-c1ccc(Cl)c(Cl)c1`, the pKi was 6.30 at D(2) dopamine receptor, 5.90 in assay [1] and 7.13 in assay [2].

For `O=c1ccc(OCCCN2CCC(c3nc4ccccc4s3)CC2)nn1-c1ccc(Cl)c(Cl)c1`, the results for the negative-log Ki (pKi) (on D(2) dopamine receptor; in assay [1]; in assay [2]) were under 5.00, under 5.00 and 6.97, respectively.

In the case of `O=c1ccc(OCCCN2CCN(c3ccccc3)CC2)nn1-c1ccc(Cl)c(Cl)c1`, the pKi was 5.88 at D(2) dopamine receptor, 7.32 in assay [1] and 6.44 in assay [2].

Regarding `O=c1ccc(OCCCN2CCN(c3cccc(C(F)(F)F)c3)CC2)nn1-c1ccc(Cl)c(Cl)c1`, the results for the pKi (on D(2) dopamine receptor; in assay [1]; in assay [2]) were 6.04, 6.99 and 7.00, respectively.

Consider `O=c1ccc(OCCCN2CCC(c3noc4cc(F)ccc34)CC2)nn1-c1ccc(Cl)cc1Cl`, for which the pKi is 9.40 on D(2) dopamine receptor, 6.72 in assay [1] and 9.40 in assay [2].

Regarding `O=c1ccc(OCCCN2CCN(c3cccc(Cl)c3Cl)CC2)nn1-c1ccc(Cl)c(Cl)c1`, the negative-log Ki (pKi) at D(2) dopamine receptor was 6.11; in assay [1] it was 6.20; in assay [2], 6.20.

As a reminder, the pKi is the negative decadic logarithm of the Ki, by convention in mol/L. A lower pKi goes with a high Ki.
